The test system of this assay is JAK2 pathway (P-STAT5 in TF-1 human erythroleukemia cells + EPO). Kind of assay: P-STAT5 TF-1+Erythropoietin (EPO) assay. In kind it is cell-based. The conditions noted are these: Homo sapiens, TF-1, 0.5 h, TF-1 cells, 30 minutes compound, EPO 30 min; IC50 by four-parameter fit; read-out: Cellular (JAK2 PSTAT5 TF1 + EPO). As for the experimental part: TF-1 human erythroleukemia cells (ATCC®; Manassas, VA; Catalog No. CRL-2003™) were grown in Roswell Park Memorial Institute (RPMI) medium supplemented with 10% heat-inactivated fetal bovine serum (FBS), 2 ng/mL granulocyte-macrophage colony-stimulating factor, 1× non-essential amino acids (NEAA), and 1 mM sodium pyruvate. The day before the assay, the cultures were transferred to Opti-MEM™, 1×NEAA, 1 mM sodium pyruvate, and 0.5% charcoal-stripped FBS (starve medium). Inhibitor stock solutions (5 mM in DMSO) were serially diluted 1:2 in DMSO to generate a 10-point concentration titration (at 500× test concentration), which was further diluted by a 50-fold dilution in Assay Medium (RPMI containing 1×NEAA and 1 mM sodium pyruvate) to generate a 10× concentration titration (in 2% DMSO). The cells (300,000 cells/well in 35 μL of Assay Medium) were seeded in 384-well Greiner plates. Diluted inhibitor at 10× concentration (5 μL) was added to the cells and the plates were incubated for 30 minutes at 37° C. in a humidified incubator. Cells were stimulated with the human recombinant cytokine at the respective EC90 concentrations, as previously determined for each individual lot. For the phosphorylated signal transducer and activator of transcription 6 (P-STAT6) TF-1+Interleukin-13 (IL-13) assay, 10 μL of 250 ng/mL IL-13 (R&D Systems; Minneapolis, MN) was added to the cells, which were then incubated for 10 minutes at 37° C. For the P-STAT5 TF-1+Erythropoietin (EPO) assay, 10 μL of 110 IU/mL EPO (Gibco Life Technologies, Catalog No. PHC2054) was added to the cells, which were then incubated for 30 min at 37° C. For both assays, the incubation was followed by addition to the cells of 5 μL of ice-cold 10× cell lysis buffer (Cell Signaling Technologies; Danvers, MA; Catalog No. 9803S) containing 1 mM phenylmethylsulfonyl fluoride (PMSF). Assay plates were frozen at −80° C. for a minimum of 1 hour. In the IL-13 assay, P-STAT6 was measured by coating goat anti-rabbit (GAR) plates (Meso Scale Discovery [MSD]; Rockville, MD; Catalog No. MSD L21RA-1) with rabbit anti-human total STAT6 antibody (Cell Signaling Technologies; Catalog No. 9362S), incubating the cell lysates in the coated plates overnight at 4° C., and then detecting with mouse anti-P-STAT6 (Tyr641) Clone 16E12 antibody (MilliporeSigma; Burlington, MA; Catalog No. 05-590, custom labeled by MSD with SULFO-tag) using standard MSD plate processing, washing, and detection protocols. In the EPO assay, P-STAT5 was detected using the phospho-STAT5a,b Whole Cell Lysate Kit (MSD; Catalog No. K150IGD-1). The electrochemiluminescence (ECL) signal of wells was read on the MESO SECTOR S600 (MSD) reader.
Data analysis was performed by subtracting the negative control (cytokine stimulated and 20 μM control inhibitor-treated cells) mean ECL value from the ECL value of all wells, determining percent of control for test compound well ECL values relative to the positive control (cytokine stimulated and DMSO-treated cells) mean ECL value, and determining the IC50 for test compounds with a four-parameter logistic fit model as shown in Equation 4.

As for `CN(CCN1CC(n2nnc(Cn3cc(NC(=O)c4cnn5cccnc45)c(-c4cc(OC(F)F)ccc4OC(F)F)n3)n2)C1)C(=O)OC(C)(C)C` [Example 31, tert-butyl N-[2-[3-[5-[[3-[2,5-bis(difluoromethoxy)phenyl]-4-(pyrazolo[1,5-a]pyrimidine-3-carbonylamino)pyrazol-1-yl]methyl]tetrazol-2-yl]azetidin-1-yl]ethyl]-N-methyl-carbamate], the IC50 was determined as 8.6 nM.

With `CN(C)CCN1CC(n2nnc(Cn3cc(NC(=O)c4cnn5cccnc45)c(-c4cc(Cl)ccc4OC(F)F)n3)n2)C1` [Example 37, N-[3-[5-chloro-2-(difluoromethoxy)phenyl]-1-[[2-[1-[2-(dimethylamino)ethyl]azetidin-3-yl]tetrazol-5-yl]methyl]pyrazol-4-yl]pyrazolo[1,5-a]pyrimidine-3-carboxamide], the IC50 came to 16 nM.

In the case of `CN1CCC(N2CC(n3nnc(Cn4cc(NC(=O)c5cnn6cccnc56)c(-c5cc(OC(F)F)ccc5OC(F)F)n4)n3)C2)CC1` [Example 38, N-[3-[2,5-bis(difluoromethoxy)phenyl]-1-[[2-[1-(1-methyl-4-piperidyl)azetidin-3-yl]tetrazol-5-yl]methyl]pyrazol-4-yl]pyrazolo[1,5-a]pyrimidine-3-carboxamide], the IC50 turned out to be 42 nM.

Regarding `CSc1ccc(OC(F)F)c(-c2nn(Cc3nnn(C4CN(CCCN(C)C)C4)n3)cc2NC(=O)c2cnn3cccnc23)c1` [Example 58, N-[3-[2-(difluoromethoxy)-5-methylsulfanyl-phenyl]-1-[[2-[1-[3-(dimethylamino)propyl]azetidin-3-yl]tetrazol-5-yl]methyl]pyrazol-4-yl]pyrazolo[1,5-a]pyrimidine-3-carboxamide], the IC50 worked out at 24 nM.

Take `CN(C)CCN1CCC(n2nnc(Cn3cc(NC(=O)c4cnn5cccnc45)c(-c4cc(OC(F)F)ccc4OC(F)F)n3)n2)CC1` [Example 61, N-[3-[2,5-bis(difluoromethoxy)phenyl]-1-[[2-[1-[2-(dimethylamino)ethyl]-4-piperidyl]tetrazol-5-yl]methyl]pyrazol-4-yl]pyrazolo[1,5-a]pyrimidine-3-carboxamide]: the IC50 is 36 nM.

Turning to `CN(C)[C@H]1C[C@H](N2CC(n3nnc(Cn4cc(NC(=O)c5cnn6cccnc56)c(-c5cc(OC(F)F)ccc5OC(F)F)n4)n3)C2)C1` [Example 70, N-[3-[2,5-bis(difluoromethoxy)phenyl]-1-[[2-[1-[3-(dimethylamino)cyclobutyl]azetidin-3-yl]tetrazol-5-yl]methyl]pyrazol-4-yl]pyrazolo[1,5-a]pyrimidine-3-carboxamide], the IC50 turned out to be 12 nM.

Take `CN1CC(N2CC(n3nnc(Cn4cc(NC(=O)c5cnn6cccnc56)c(-c5cc(OC(F)F)ccc5OC(F)F)n4)n3)C2)C1` [Example 78, N-[3-[2,5-bis(difluoromethoxy)phenyl]-1-[[2-[1-(1-methylazetidin-3-yl)azetidin-3-yl]tetrazol-5-yl]methyl]pyrazol-4-yl]pyrazolo[1,5-a]pyrimidine-3-carboxamide; formic acid]: the IC50 came to 47 nM.
